Measurements: PubChem BioAssay AID248 (DTP/NCI, 2004)
Where “and” joins values, the source holds several entries; their conditions need not be identical. Equal values may be shown once. Toxic doses and inconclusive results are not listed. Cut-off read from the data, not from the text of the source: active = T/C of 150% or more; inactive = T/C below 125%.

Tested on: L1210 leukemia ip in BDF1 mice, survival T/C
Assay: NCI In Vivo Anticancer Drug Screen. Data for tumor model L1210 Leukemia (intraperitoneal) in B6D2F1 (BDF1) mice
Details: endpoint: mean survival time, higher = longer survival
How it was run: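 Value reflects the ratio of survival in compound-treated mice to survival in vehicle-treated controls, with both groups carrying the same transplanted tumor.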

[1] = dose: 100.0 mg/kg/injection, schedule: Q01DX001 (ip), vehicle: saline with Tween-80
[2] = dose: 200.0 mg/kg/injection, schedule: Q01DX001 (ip), vehicle: saline with Tween-80
[3] = dose: 400.0 mg/kg/injection, schedule: Q01DX001 (ip), vehicle: saline with Tween-80
[4] = dose: 100.0 mg/kg/injection, schedule: Q01DX009 (ip), vehicle: saline
[5] = dose: 200.0 mg/kg/injection, schedule: Q01DX009 (ip), vehicle: saline
[6] = dose: 400.0 mg/kg/injection, schedule: Q01DX009 (ip), vehicle: saline
[7] = dose: 75.0 mg/kg/injection, schedule: Q01DX001 (ip), vehicle: saline
[8] = dose: 150.0 mg/kg/injection, schedule: Q01DX001 (ip), vehicle: saline
[9] = dose: 300.0 mg/kg/injection, schedule: Q01DX001 (ip), vehicle: saline
[10] = dose: 100.0 mg/kg/injection, schedule: Q01DX009 (ip), vehicle: saline with Tween-80
[11] = dose: 200.0 mg/kg/injection, schedule: Q01DX009 (ip), vehicle: saline with Tween-80
[12] = dose: 400.0 mg/kg/injection, schedule: Q01DX009 (ip), vehicle: saline with Tween-80
[13] = dose: 100.0 mg/kg/injection, schedule: Q04DX003 (ip), vehicle: saline sonified
[14] = dose: 200.0 mg/kg/injection, schedule: Q04DX003 (ip), vehicle: saline sonified
[15] = dose: 400.0 mg/kg/injection, schedule: Q04DX003 (ip), vehicle: saline sonified
[16] = dose: 100.0 mg/kg/injection, schedule: Q01DX009 (ip), vehicle: Klucel (hydroxypropylcellulose) (HPC)
[17] = dose: 100.0 mg/kg/injection, schedule: Q04DX003 (ip), vehicle: Klucel (hydroxypropylcellulose) (HPC)
[18] = dose: 200.0 mg/kg/injection, schedule: Q01DX009 (ip), vehicle: Klucel (hydroxypropylcellulose) (HPC)
[19] = dose: 200.0 mg/kg/injection, schedule: Q04DX003 (ip), vehicle: Klucel (hydroxypropylcellulose) (HPC)
[20] = dose: 400.0 mg/kg/injection, schedule: Q04DX003 (ip), vehicle: Klucel (hydroxypropylcellulose) (HPC)
[21] = dose: 50.0 mg/kg/injection, schedule: Q01DX001 (ip), vehicle: saline
[22] = dose: 100.0 mg/kg/injection, schedule: Q01DX001 (ip), vehicle: saline
[23] = dose: 200.0 mg/kg/injection, schedule: Q01DX001 (ip), vehicle: saline
[24] = dose: 400.0 mg/kg/injection, schedule: Q01DX001 (ip), vehicle: saline
[25] = dose: 100.0 mg/kg/injection, schedule: Q04DX003 (ip), vehicle: saline with Tween-80
[26] = dose: 200.0 mg/kg/injection, schedule: Q04DX003 (ip), vehicle: saline with Tween-80

Measured: T/C

c1ccc(CSc2nccc(NN=C3CCCCC3)n2)cc1
inactive: dose: 25.0 mg/kg/injection, schedule: Q01DX001 (ip), vehicle: DMSO 90 % of control | dose: 50.0 mg/kg/injection, schedule: Q01DX001 (ip), vehicle: DMSO 88 % of control | dose: 75.0 mg/kg/injection, schedule: Q01DX009 (ip), vehicle: DMSO 92 % of control | dose: 100.0 mg/kg/injection, schedule: Q01DX001 (ip), vehicle: DMSO 88 % of control | dose: 150.0 mg/kg/injection, schedule: Q01DX009 (ip), vehicle: DMSO 94 % of control | dose: 200.0 mg/kg/injection, schedule: Q01DX001 (ip), vehicle: DMSO 91 % of control | dose: 400.0 mg/kg/injection, schedule: Q01DX001 (ip), vehicle: DMSO 100 % of control

O=[N+]([O-])c1cccc(S(=O)(=O)SC(Cl)(Cl)Cl)c1
inactive: dose: 25.0 mg/kg/injection, schedule: Q04DX003 (ip), vehicle: saline 96 % of control

O=c1cc[nH]c2ccccc12
inactive: [1] 96 % of control | [2] 97 % of control | [3] 103 % of control

Nc1ccccc1CCCC(=O)O
inactive: [4] 95 % of control | dose: 100.0 mg/kg/injection, schedule: Q04DX003 (ip), vehicle: saline 104 % of control | [5] 90 % of control | dose: 200.0 mg/kg/injection, schedule: Q04DX003 (ip), vehicle: saline 98 % of control | [6] 105 % of control | dose: 400.0 mg/kg/injection, schedule: Q04DX003 (ip), vehicle: saline 93 % of control

CCCCCCCCC(CCCC1CCCC1)CCCC1CCCC1
inactive: [1] 98 % of control | [2] 94 % of control | [3] 96 % of control

c1ccn2cncc2c1
inactive: [7] 95 % of control | [8] 106 % of control | [9] 102 % of control

CCOC(=N)CCCl
inactive: [10] 94 % of control | [11] 102 % of control | [12] 96 % of control

Nc1ccc(CCc2ccc(Cl)cc2S(=O)(=O)F)c(Cl)c1
inactive: dose: 100.0 mg/kg/injection, schedule: Q01DX009 (ip), vehicle: saline sonified 97 % of control | [13] 100 % of control | dose: 200.0 mg/kg/injection, schedule: Q01DX009 (ip), vehicle: saline sonified 92 % of control | [14] 100 % of control | dose: 400.0 mg/kg/injection, schedule: Q01DX009 (ip), vehicle: saline sonified 98 % of control | [15] 96 % of control

OC1CCC2CCCC2C1 (stereo not given)
inactive: [16] 97 % of control | [17] 102 % of control | [18] 97 % of control | [19] 98 % of control | [20] 99 % of control

COc1cccc2c1N=c1c(Cl)c3c(c(Cl)c1O2)=Nc1c(OC)cccc1O3
inactive: [17] 106 % of control | [19] 102 % of control | [20] 113 % of control

Cc1c(Cl)nc(Cl)nc1Cl
inactive: dose: 8.0 mg/kg/injection, schedule: Q01DX015 (ip), vehicle: carboxymethylcellulose (CMC) 104 % of control | dose: 16.0 mg/kg/injection, schedule: Q01DX015 (ip), vehicle: carboxymethylcellulose (CMC) 98 % of control | dose: 32.0 mg/kg/injection, schedule: Q01DX015 (ip), vehicle: carboxymethylcellulose (CMC) 96 % of control | [21] 101 % of control | dose: 64.0 mg/kg/injection, schedule: Q01DX015 (ip), vehicle: carboxymethylcellulose (CMC) 106 % of control | dose: 75.0 mg/kg/injection, schedule: Q01DX015 (ip), vehicle: carboxymethylcellulose (CMC) 98 % of control | [22] 101 % of control | dose: 150.0 mg/kg/injection, schedule: Q01DX015 (ip), vehicle: carboxymethylcellulose (CMC) 91 % of control | [23] 104 % of control | [24] 104 % of control

N#Cc1c(F)c(F)c(Oc2c(F)c(F)c(F)c(Oc3c(F)c(F)c(C#N)c(F)c3F)c2F)c(F)c1F
inactive: dose: 100.0 mg/kg/injection, schedule: Q01DX009 (ip), vehicle: other 103 % of control | dose: 100.0 mg/kg/injection, schedule: Q04DX003 (ip), vehicle: other 100 % of control | dose: 200.0 mg/kg/injection, schedule: Q01DX009 (ip), vehicle: other 100 % of control | dose: 200.0 mg/kg/injection, schedule: Q04DX003 (ip), vehicle: other 97 % of control and 100 % of control | dose: 400.0 mg/kg/injection, schedule: Q04DX003 (ip), vehicle: other 86 % of control

Cc1nnc2sc(C(=O)O)nn12
inactive: [22] 90 % of control | [23] 93 % of control | [24] 96 % of control

CC(C)(CC(=O)NNc1ccccc1)C(=O)O
inactive: [21] 97 % of control | [22] 102 % of control | [23] 100 % of control | [24] 102 % of control

Cc1cccc(OC(=O)NC2CCCCC2)c1
inactive: [16] 118 % of control | [17] 102 % of control | [18] 114 % of control | [19] 95 % of control | dose: 400.0 mg/kg/injection, schedule: Q01DX009 (ip), vehicle: Klucel (hydroxypropylcellulose) (HPC) 106 % of control | [20] 96 % of control

CC12CCC(C(=O)CC1=O)C2(C)C (stereo not given)
inactive: [4] 100 % of control | [5] 104 % of control | [6] 96 % of control

COc1ccc(C=C2c3ccccc3-c3ccccc32)cc1
inactive: [13] 95 % of control | [14] 100 % of control | [15] 94 % of control

O=c1ccc2cc3ccc(=O)oc3cc2o1
inactive: [1] 97 % of control | [2] 97 % of control | [3] 87 % of control

N#CCCC(C#N)(CCC#N)c1ccc([N+](=O)[O-])cc1
inactive: [10] 102 % of control | [25] 98 % of control | [11] 107 % of control | [26] 98 % of control | [12] 98 % of control | dose: 400.0 mg/kg/injection, schedule: Q04DX003 (ip), vehicle: saline with Tween-80 98 % of control

CCOC(=O)c1cnc(SC)nc1NC
inactive: [17] 97 % of control | [19] 99 % of control | [20] 111 % of control

COC1C(OC(N)=O)C(O)C(Oc2ccc3c(O)c(N)c(=O)oc3c2C)OC1(C)C (stereo not given)
inactive: dose: 37.5 mg/kg/injection, schedule: Q01DX009 (ip), vehicle: Klucel (hydroxypropylcellulose) (HPC) 98 % of control | dose: 75.0 mg/kg/injection, schedule: Q01DX009 (ip), vehicle: Klucel (hydroxypropylcellulose) (HPC) 101 % of control | dose: 150.0 mg/kg/injection, schedule: Q01DX009 (ip), vehicle: Klucel (hydroxypropylcellulose) (HPC) 104 % of control | dose: 300.0 mg/kg/injection, schedule: Q01DX009 (ip), vehicle: Klucel (hydroxypropylcellulose) (HPC) 101 % of control

Cc1c(C(C)(C)c2ccccc2)n(C)c2ccc(C(C)(C)c3ccccc3)cc12
inactive: dose: 50.0 mg/kg/injection, schedule: Q01DX001 (ip), vehicle: other 91 % of control | dose: 100.0 mg/kg/injection, schedule: Q01DX001 (ip), vehicle: other 91 % of control | dose: 200.0 mg/kg/injection, schedule: Q01DX001 (ip), vehicle: other 96 % of control | dose: 400.0 mg/kg/injection, schedule: Q01DX001 (ip), vehicle: other 93 % of control

CCOC(=O)Cc1cnc(SC)nc1N
inactive: [17] 95 % of control | [19] 94 % of control | [20] 87 % of control

O=S1(=O)C2CCCC1(Cl)CCC2
inactive: [7] 107 % of control | [8] 102 % of control | [9] 93 % of control

CC(C)C(C=O)(CCN1CCCCC1)c1cccc2ccccc12 (stereo not given)
inactive: dose: 25.0 mg/kg/injection, schedule: Q04DX002 (ip), vehicle: saline with Tween-80 98 % of control | dose: 50.0 mg/kg/injection, schedule: Q04DX002 (ip), vehicle: saline with Tween-80 98 % of control | dose: 100.0 mg/kg/injection, schedule: Q04DX002 (ip), vehicle: saline with Tween-80 88 % of control

CCCCCCC(C(C(C)=O)C(C)=O)C(C(C)=O)C(C)=O
inactive: [25] 91 % of control | [26] 93 % of control
